Data: patent US6620817B1, “[5-CHLORO-6-PHENYL-2-(4-TRIFLUOROMETHYLPHENYL)-4-PYRIMIDINYLAMINO]ACETAMIDE DERIVATIVES, PROCESS FOR PRODUCING THE SAME, MEDICINAL COMPOSITIONS CONTAINING THE SAME AND INTERMEDIATE OF THESE COMPOUNDS” (Dainippon Pharmaceutical Co., Ltd., priority 1999, dated 2003)

Legend:
male mice of ICR strain = experiment: Subacute toxicity test (repetitive oral administration for 14 days); format: in vivo; parameters: key to ALT (alanine aminotransferase), significance vs solvent-treated control: −: no significant differences (Student's t-test); +: p < 0.05 (Student's t-test); ++: p < 0.01 (Student's t-test); settings: for ALT (alanine aminotransferase) vs vehicle-treated control group (in words) / AST (aspartate aminotransferase) vs vehicle-treated control group / BUN (blood urea nitrogen) vs vehicle-treated control group / wet-weights of various organs such as liver, spleen vs vehicle-treated control group / change in the body weight during the test vs vehicle-treated control group: 14 days oral; for ALT (alanine aminotransferase) vs vehicle-treated control group (in words) / AST (aspartate aminotransferase) vs vehicle-treated control group: parameter for liver dysfunction; for BUN (blood urea nitrogen) vs vehicle-treated control group: parameter for renal dysfunction; for wet-weights of various organs such as liver, spleen vs vehicle-treated control group: weight per body; for ALT (alanine aminotransferase), significance vs solvent-treated control: blood plasma; for ALT (alanine aminotransferase), significance vs solvent-treated control / Other remarks: male ICR mice; for change in the body weight during the test vs vehicle-treated control group: even at a high dose of 300 mg/kg; for Other remarks: remarks observed during the 14-day oral test
Protocol: Subacute toxicity test was carried out by repetitive administration of a test compound to mice for 14 days. That is, a test compound was orally administered to male mice of ICR strain once a day for 14 days. On the day following the final administration, the mice were anesthetized with Nembutal, and the blood was taken out therefrom, and further various organs were taken out. The wet-weight of each organ was determined, and was converted into a weight per body, and then compared. The blood plasma was subjected to various biochemical tests, mainly to tests for parameters for liver function and renal function. The results of these tests were statistically compared with those in the solvent-treated control group. The data of the biochemical tests, for example, ALT (alanine aminotransferase) as a parameter for liver dysfunction and other remarks observed during the test (see the column of “other remarks” in Table 3) are shown in Table 3.

[1] = system: collagen-induced arthritis; experiment: Collagen-induced arthritis inhibitory test; format: in vivo, mice; settings: for Inhibitory rate: score of arthritis on the 52nd day after the first immunization vs control group, male DBA/IJ mice
Protocol: Collagen-induced arthritis inhibitory test is an experimental model for rheumatoid arthritis reported by Trethan, D. E. et al. [cf. […] J. Immunol., 140, 78-83 (1988)].
Collagen-induced arthritis inhibitory test was carried out according to the method of Kakimoto, K. et al. (cf. above reference of Kakimoto, K. et al.) with slight modification. That is, solubilized bovine cartilage type II collagen (product of Elastine Products, U.S.A.) was emulsified in complete Freund's adjuvant (product of DIFCO Lab., U.S.A.) to give a homogeneous emulsion. Male mice of DBA/IJ strain (6 week-old; product of Nippon Charles River, Japan) were immunized by injection at the base of the tail with 150 μg of the emulsified collagen. Twenty one days after the first immunization, arthritis was induced by a booster immunization of 150 μg of the emulsified collagen prepared in the same manner as above at the base of the tail again. A test compound was orally administered 5 days a week except for Saturdays and Sundays, which was started on the day of the first immunization and continued until the termination of the experiment. Mice were daily observed since the 8th day after the booster immunization for the onset of arthritis, and an arthritic score was derived by grading the severity of involvement of each paw five scales according to the method of Wood, F. D. et al. [cf. Int. Arch. Allergy Appl. The severity of arthritis was estimated by the sum of the scores of all 4 paws of both forepaws and both hind paws, and the onset of the disease was considered when score 1 was observed.
The inhibitory rate was obtained by comparing the score of arthritis on the 52nd day after the first immunization with that of the control group.

[2] = dose 100 mg/kg orally once a day for 14 days
[3] = dose 200 mg/kg orally once a day for 14 days
[4] = dose 300 mg/kg orally once a day for 14 days

Row | SMILES | ALT (alanine aminotransferase) vs vehicle-treated control group (in words) (male mice of ICR strain) | AST (aspartate aminotransferase) vs vehicle-treated control group (male mice of ICR strain) | BUN (blood urea nitrogen) vs vehicle-treated control group (male mice of ICR strain) | wet-weights of various organs such as liver, spleen vs vehicle-treated control group (male mice of ICR strain) | ALT (alanine aminotransferase), significance vs solvent-treated control (male mice of ICR strain; [2]) | ALT (alanine aminotransferase), significance vs solvent-treated control (male mice of ICR strain; [3]) | ALT (alanine aminotransferase), significance vs solvent-treated control (male mice of ICR strain; [4]) | change in the body weight during the test vs vehicle-treated control group (male mice of ICR strain) | Other remarks (male mice of ICR strain) | Inhibitory rate ([1]; dose 0.3 mg/kg orally) | Inhibitory rate ([1]; dose 10 mg/kg orally) | effect on the above parameters (body weight, organ weights, ALT, AST, BUN) (male mice of ICR strain; dose 100 mg/kg) | effect on the liver (male mice of ICR strain; high dose of 300 mg/kg) | inhibitory effects (in words) ([1]; dose 3 mg/kg) | Inhibitory rate ([1]; dose 3 mg/kg orally) | side effect on liver and kidney (male mice of ICR strain; dose 100 mg/kg) | Inhibitory rate ([1]; dose 1 mg/kg orally) | anti-rheumatoid activity compared with Examples 1 and 2 ([1]; dose 3 mg/kg or less) | anti-rheumatoid activity compared with Examples 1 and 2 ([1]; dose 10 mg/kg)
1 | CN(C)C(=O)CNc1nc(-c2ccc(C(F)(F)F)cc2)nc(-c2ccccc2)c1Cl [Example 1, 2-[5-chloro-6-phenyl-2-(4-trifluoromethylphenyl)-4-pyrimidinylamino]-N,N-dimethylacetamide] | not significantly different | not significantly different | not significantly different | not significantly different | − | − | − | not significantly different | no particular remark | 20.0% | 96.0% |  |  |  |  |  |  |  | 
2 | CN(C(=O)CNc1nc(-c2ccc(C(F)(F)F)cc2)nc(-c2ccccc2)c1Cl)C1CC1 [Example 2, 2-[5-chloro-6-phenyl-2-(4-trifluoromethylphenyl)-4-pyrimidinylamino]-N-cyclopropyl-N-methylacetamide] | not significantly different | not significantly different | not significantly different | not significantly different | − | − | − | not significantly different | no particular remark | 29.1% | 96.6% |  |  |  |  |  |  |  | 
3 | CCCN(CCC)C(=O)CNc1nc(-c2ccc(C(F)(F)F)cc2)nc(C)c1C [Reference Example A, 2-[5,6-dimethyl-2-(4-trifluoro-methylphenyl)-4-pyrimidinylamino]-N,N-dipropylacetamide, reference compound] |  |  |  |  | − | − | + (p < 0.05 (Student's t-test)) |  | no particular remark |  | 73.2% | did not affect | did affect the liver in some degree | hardly showed any inhibitory effects | 15.5% |  |  |  | 
4 | Cc1nc(-c2ccc(C(F)(F)F)cc2)nc(NCC(=O)N(C)C)c1C [Reference Example B, 2-[5,6-dimethyl-2-(4-trifluoro-methylphenyl)-4-pyrimidinylamino]-N,N-dimethylacetamide] |  |  |  |  | ++ (p < 0.01 (Student's t-test)) |  |  |  | peritoneal fluid, renal damage | 0.0% | 97.6% |  |  |  | 63.9% | potent side effect on liver and kidney | 41.8% | weaker than the compounds of Example 1 and Example 2 | as potent as the compounds of Example 1 and Example 2
